Assay results: US20260116920A1, “HUMAN TRANSFERRIN RECEPTOR BINDING PEPTIDE” (PEPTIDREAM INC., priority 2021, published 2026)
pKd: −log10 of the molar value. Starred links: 1 amine or outer side, 2 acyl side, 3 side chain; linkers in the order of their positions; H or OH if unused. Positions of bridges follow the written chain, without caps; N, C: chain ends. Non-standard residues stand in square brackets, D forms with d. Residues, ends and D or L forms follow the SMILES beside them. *: point of attachment. Trp(1-CH2COOH) = N[C@@H](Cc1cn(CC(=O)O)c2ccccc12)C(=O)O; NMePhe(4-COOH) = CN[C@@H](Cc1ccc(C(=O)O)cc1)C(=O)O; X1 = O=C([C@H](Cc1cccc(C(=O)[*:3])c1)N[*:1])[*:2]; Nle(6-morpholino) = N[C@@H](CCCCN1CCOCC1)C(=O)O; Phe(3-COOH) = N[C@@H](Cc1cccc(C(=O)O)c1)C(=O)O; Trp(7-aza) = N[C@@H](Cc1c[nH]c2ncccc12)C(=O)O; NH(CH2CH2O)8Me = COCCOCCOCCOCCOCCOCCOCCOCCN*; NMePhe(3-Cl) = CN[C@@H](Cc1cccc(Cl)c1)C(=O)O; 3Pal(6-NH2) = Nc1ccc(C[C@H](N)C(=O)O)cn1; X2 = COCCOCCOCCOCCOCCOCCOCCOCCNC(=O)C*; NMeY = CN[C@@H](Cc1ccc(O)cc1)C(=O)O; 4Pal = N[C@@H](Cc1ccncc1)C(=O)O; PEG4 = NCCOCCOCCOCCOCCC(=O)O; Carboxymethyl = O=C(O)C*

Biological target: T1, human transferrin receptor (hTfR) (Homo sapiens, UniProt P02786)
T1 construct: made in house
T1 sequence (P02786 89-760 limits assumed): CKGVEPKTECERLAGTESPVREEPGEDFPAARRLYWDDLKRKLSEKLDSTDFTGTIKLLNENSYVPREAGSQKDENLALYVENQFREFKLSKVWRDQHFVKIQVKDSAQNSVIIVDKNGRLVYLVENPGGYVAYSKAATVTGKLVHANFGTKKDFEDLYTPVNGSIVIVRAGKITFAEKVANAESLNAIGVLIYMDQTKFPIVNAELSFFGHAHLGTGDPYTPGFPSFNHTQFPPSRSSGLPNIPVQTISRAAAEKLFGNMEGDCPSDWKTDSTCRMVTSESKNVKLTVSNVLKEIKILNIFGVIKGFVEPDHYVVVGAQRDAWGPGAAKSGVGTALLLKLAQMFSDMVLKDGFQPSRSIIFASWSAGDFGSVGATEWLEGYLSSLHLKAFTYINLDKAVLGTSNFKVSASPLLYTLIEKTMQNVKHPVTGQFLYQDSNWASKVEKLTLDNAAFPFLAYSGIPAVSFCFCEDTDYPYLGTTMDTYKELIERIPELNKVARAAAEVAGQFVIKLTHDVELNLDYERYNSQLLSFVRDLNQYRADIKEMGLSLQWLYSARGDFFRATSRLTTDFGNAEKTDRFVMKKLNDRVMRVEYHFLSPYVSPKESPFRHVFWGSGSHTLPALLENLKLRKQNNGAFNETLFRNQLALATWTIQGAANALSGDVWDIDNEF
Test: Evaluation of molecular interaction between transferrin receptor (hTfR) and peptide using surface plasmon resonance (SPR)
Assay type: binding
Conditions: peptide with linker, surface plasmon resonance; read-out: SPR (KD class for binding to hTfR)
Outline: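 Recombinant human TfR dimer (0.5 μM) was captured on a Ni-charged NTA chip and amine-coupled with EDC/NHS, then ethanolamine-capped. Peptides at 5–100 nM in HEPES pH 8.0 buffer with 150 mM NaCl, 0.05% Tween 20, 0.1% BSA and 1.0% DMSO were run by single-cycle kinetics; KD came from least-squares curve fitting.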

pKd | Compound
7.00 to 9.00 | CC[C@H](C)[C@@H]1NC(=O)[C@H](Cc2ccc(OCC(=O)O)cc2)NC(=O)[C@H](Cc2ccc(O)cc2)NC(=O)[C@H](CC(N)=O)NC(=O)[C@H](Cc2cn(CC(=O)O)c3ccccc23)NC(=O)[C@H](C(C)C)NC(=O)[C@H](Cc2cccc(Cl)c2)N(C)C(=O)[C@H](C(C)C)NC(=O)[C@H](C)NC(=O)CSC[C@@H](C(=O)NCCOCCOCCOCCOCCC(N)=O)NC(=O)[C@H](Cc2ccc(O)cc2)N(C)C(=O)[C@H](Cc2cccc(C(=O)O)c2)NC(=O)[C@H](CCCCN2CCOCC2)NC(=O)[C@H](CCC(=O)NCCOCCOCCOCCOCCOCCOCCOCCOC)NC(=O)[C@H]([C@@H](C)CC)NC1=O [compound 217] ({CH2CO}-AV[NMePhe(3-Cl)]V[Trp(1-CH2COOH)]NYY(Carboxymethyl)IIE(NH(CH2CH2O)8Me)[Nle(6-morpholino)][Phe(3-COOH)][NMeY]C[PEG4]-NH2; thioether N-15)
7.00 to 9.00 | CC[C@H](C)[C@@H]1NC(=O)[C@H](Cc2ccc(OCC(=O)O)cc2)NC(=O)[C@H](Cc2ccc(O)cc2)NC(=O)[C@H](CC(N)=O)NC(=O)[C@H](Cc2c[nH]c3ncccc23)NC(=O)[C@H](C(C)C)NC(=O)[C@H](Cc2cccc(Cl)c2)N(C)C(=O)[C@H](C(C)C)NC(=O)[C@H](C)NC(=O)CSC[C@@H](C(=O)NCCOCCOCCOCCOCCC(N)=O)NC(=O)[C@H](Cc2ccc(O)cc2)N(C)C(=O)[C@H](Cc2ccncc2)NC(=O)[C@H](CCCNC(=N)N)NC(=O)[C@H](CCC(=O)NCCOCCOCCOCCOCCOCCOCCOCCOC)NC(=O)[C@H]([C@@H](C)CC)NC1=O [compound 218]
7.00 to 9.00 | CC[C@H](C)[C@@H]1NC(=O)[C@H](Cc2ccc(OCC(=O)O)cc2)NC(=O)[C@H](Cc2ccc(O)cc2)NC(=O)[C@H](CC(N)=O)NC(=O)[C@H](Cc2cn(CC(=O)O)c3ccccc23)NC(=O)[C@H](C(C)C)NC(=O)[C@H](Cc2cccc(Cl)c2)N(C)C(=O)[C@H](C(C)C)NC(=O)[C@H](C)NC(=O)CSC[C@@H](C(=O)NCCOCCOCCOCCOCCC(N)=O)NC(=O)[C@H](Cc2ccc(O)cc2)N(C)C(=O)[C@H](Cc2ccncc2)NC(=O)[C@H](CCCCN2CCOCC2)NC(=O)[C@H](CCC(=O)NCCOCCOCCOCCOCCOCCOCCOCCOC)NC(=O)[C@H]([C@@H](C)CC)NC1=O [compound 219]
7.00 to 9.00 | CC[C@H](C)[C@@H]1NC(=O)[C@H](Cc2ccc(OCC(=O)O)cc2)NC(=O)[C@H](Cc2ccc(O)cc2)NC(=O)[C@H](CC(N)=O)NC(=O)[C@H](Cc2c[nH]c3ncccc23)NC(=O)[C@H](C(C)C)NC(=O)[C@H](Cc2cccc(Cl)c2)N(C)C(=O)[C@H](C(C)C)NC(=O)[C@H](C)NC(=O)CSC[C@@H](C(=O)NCCOCCOCCOCCOCCC(N)=O)NC(=O)[C@H](Cc2ccc(O)cc2)N(C)C(=O)[C@H](Cc2cccc(C(=O)O)c2)NC(=O)[C@H](CCCCN2CCOCC2)NC(=O)[C@H](CCC(=O)NCCOCCOCCOCCOCCOCCOCCOCCOC)NC(=O)[C@H]([C@@H](C)CC)NC1=O [compound 220] ({CH2CO}-AV[NMePhe(3-Cl)]V[Trp(7-aza)]NYY(Carboxymethyl)IIE(NH(CH2CH2O)8Me)[Nle(6-morpholino)][Phe(3-COOH)][NMeY]C[PEG4]-NH2; thioether N-15)
7.00 to 9.00 | CC[C@H](C)[C@@H]1NC(=O)[C@H](Cc2ccc(OCC(=O)O)cc2)NC(=O)[C@H](Cc2ccc(O)cc2)NC(=O)[C@H](CC(N)=O)NC(=O)[C@H](Cc2c[nH]c3ncccc23)NC(=O)[C@H](C(C)C)NC(=O)[C@H](Cc2cccc(Cl)c2)N(C)C(=O)[C@H](C(C)C)NC(=O)[C@H](C)NC(=O)CSC[C@@H](C(=O)NCCOCCOCCOCCOCCC(N)=O)NC(=O)[C@H](Cc2ccc(O)cc2)N(C)C(=O)[C@H](CCC(=O)NCCOCCOCCOCCOCCOCCOCCOCCOC)NC(=O)[C@H](CCCNC(=N)N)NC(=O)[C@H](CCC(=O)NCCOCCOCCOCCOCCOCCOCCOCCOC)NC(=O)[C@H]([C@@H](C)CC)NC1=O [compound 221] ({CH2CO}-AV[NMePhe(3-Cl)]V[Trp(7-aza)]NYY(Carboxymethyl)IIE(NH(CH2CH2O)8Me)RE(NH(CH2CH2O)8Me)[NMeY]C[PEG4]-NH2; thioether N-15)
7.00 to 9.00 | CC[C@H](C)[C@@H]1NC(=O)[C@H](Cc2ccc(OCC(=O)O)cc2)NC(=O)[C@H](Cc2ccc(N)nc2)NC(=O)[C@H](CC(N)=O)NC(=O)[C@H](Cc2cn(CC(=O)O)c3ccccc23)NC(=O)[C@H](C(C)C)NC(=O)[C@H](Cc2cccc(Cl)c2)N(C)C(=O)[C@H](C(C)C)NC(=O)[C@H](C)NC(=O)CSC[C@@H](C(=O)NCCOCCOCCOCCOCCC(N)=O)NC(=O)[C@H](Cc2ccc(O)cc2)N(C)C(=O)[C@H](Cc2ccncc2)NC(=O)[C@H](CCCNC(=N)N)NC(=O)[C@H](CCC(=O)NCCOCCOCCOCCOCCOCCOCCOCCOC)NC(=O)[C@H]([C@@H](C)CC)NC1=O [compound 222]
7.00 to 9.00 | CC[C@H](C)[C@@H]1NC(=O)[C@H](Cc2ccc(OCC(=O)O)cc2)NC(=O)[C@H](Cc2ccc(N)nc2)NC(=O)[C@H](CC(N)=O)NC(=O)[C@H](Cc2cn(CC(=O)O)c3ccccc23)NC(=O)[C@H](C(C)C)NC(=O)[C@H](Cc2cccc(Cl)c2)N(C)C(=O)[C@H](C(C)C)NC(=O)[C@H](C)NC(=O)CSC[C@@H](C(=O)NCCOCCOCCOCCOCCC(N)=O)NC(=O)[C@H](Cc2ccc(O)cc2)N(C)C(=O)[C@H](Cc2cccc(C(=O)O)c2)NC(=O)[C@H](CCCNC(=N)N)NC(=O)[C@H](CCC(=O)NCCOCCOCCOCCOCCOCCOCCOCCOC)NC(=O)[C@H]([C@@H](C)CC)NC1=O [compound 223] ({CH2CO}-AV[NMePhe(3-Cl)]V[Trp(1-CH2COOH)]N[3Pal(6-NH2)]Y(Carboxymethyl)IIE(NH(CH2CH2O)8Me)R[Phe(3-COOH)][NMeY]C[PEG4]-NH2; thioether N-15)
7.00 to 9.00 | CC[C@H](C)[C@@H]1NC(=O)[C@H](Cc2ccc(OCC(=O)O)cc2)NC(=O)[C@H](Cc2ccc(N)nc2)NC(=O)[C@H](CC(N)=O)NC(=O)[C@H](Cc2c[nH]c3ncccc23)NC(=O)[C@H](C(C)C)NC(=O)[C@H](Cc2cccc(Cl)c2)N(C)C(=O)[C@H](C(C)C)NC(=O)[C@H](C)NC(=O)CSC[C@@H](C(=O)NCCOCCOCCOCCOCCC(N)=O)NC(=O)[C@H](Cc2ccc(O)cc2)N(C)C(=O)[C@H](Cc2ccncc2)NC(=O)[C@H](CCCNC(=N)N)NC(=O)[C@H](CCC(=O)NCCOCCOCCOCCOCCOCCOCCOCCOC)NC(=O)[C@H]([C@@H](C)CC)NC1=O [compound 224]
> 9.00 | CC[C@H](C)[C@@H]1NC(=O)[C@H](Cc2ccc(OCC(=O)O)cc2)NC(=O)[C@H](Cc2ccc(O)cc2)NC(=O)[C@H](CC(N)=O)NC(=O)[C@H](Cc2c[nH]c3ncccc23)NC(=O)[C@H](C(C)C)NC(=O)[C@H](Cc2cccc(Cl)c2)N(C)C(=O)[C@H](C(C)C)NC(=O)[C@H](C)NC(=O)CSC[C@@H](C(=O)NCCOCCOCCOCCOCCC(N)=O)NC(=O)[C@H](Cc2ccc(O)cc2)N(C)C(=O)[C@H](Cc2cccc(C(=O)O)c2)NC(=O)[C@H](CCCNC(=N)N)NC(=O)[C@H](CCC(N)=O)NC(=O)[C@H]([C@@H](C)CC)NC1=O [compound 225]
7.00 to 9.00 | CC[C@H](C)[C@@H]1NC(=O)[C@H](Cc2ccc(OCC(=O)NCCOCCOCCOCCOCCOCCOCCOCCOC)cc2)NC(=O)[C@H](Cc2ccc(O)cc2)NC(=O)[C@H](CC(N)=O)NC(=O)[C@H](Cc2c[nH]c3ncccc23)NC(=O)[C@H](C(C)C)NC(=O)[C@H](Cc2cccc(Cl)c2)N(C)C(=O)[C@H](C(C)C)NC(=O)[C@H](C)NC(=O)CSC[C@@H](C(=O)NCCOCCOCCOCCOCCC(N)=O)NC(=O)[C@H](Cc2ccc(C(=O)NCCOCCOCCOCCOCCOCCOCCOCCOC)cc2)N(C)C(=O)[C@H](Cc2cccc(C(=O)NCCOCCOCCOCCOCCOCCOCCOCCOC)c2)NC(=O)[C@H](CCC(N)=O)NC(=O)[C@H](CCC(N)=O)NC(=O)[C@H]([C@@H](C)CC)NC1=O [compound 226] ({CH2CO}-AV[NMePhe(3-Cl)]V[Trp(7-aza)]NYY(X2)IIQQ[X1](NH(CH2CH2O)8Me)[NMePhe(4-COOH)](NH(CH2CH2O)8Me)C[PEG4]-NH2; thioether N-15)
7.00 to 9.00 | CC[C@H](C)[C@@H]1NC(=O)[C@H](Cc2ccc(OCC(=O)NCCOCCOCCOCCOCCOCCOCCOCCOC)cc2)NC(=O)[C@H](Cc2ccc(O)cc2)NC(=O)[C@H](CC(N)=O)NC(=O)[C@H](Cc2c[nH]c3ncccc23)NC(=O)[C@H](C(C)C)NC(=O)[C@H](Cc2cccc(Cl)c2)N(C)C(=O)[C@H](C(C)C)NC(=O)[C@H](C)NC(=O)CSC[C@@H](C(=O)NCCOCCOCCOCCOCCC(N)=O)NC(=O)[C@H](Cc2ccc(C(=O)NCCOCCOCCOCCOCCOCCOCCOCCOC)cc2)N(C)C(=O)[C@H](Cc2ccncc2)NC(=O)[C@H](CCC(N)=O)NC(=O)[C@H](CCC(N)=O)NC(=O)[C@H]([C@@H](C)CC)NC1=O [compound 227] ({CH2CO}-AV[NMePhe(3-Cl)]V[Trp(7-aza)]NYY(X2)IIQQ[4Pal][NMePhe(4-COOH)](NH(CH2CH2O)8Me)C[PEG4]-NH2; thioether N-15)
7.00 to 9.00 | CC[C@H](C)[C@@H]1NC(=O)[C@H](Cc2ccc(OC)cc2)NC(=O)[C@H](Cc2ccc(O)cc2)NC(=O)[C@H](CC(N)=O)NC(=O)[C@H](Cc2c[nH]c3ncccc23)NC(=O)[C@H](C(C)C)NC(=O)[C@H](Cc2cccc(Cl)c2)N(C)C(=O)[C@H](C(C)C)NC(=O)[C@H](C)NC(=O)CSC[C@@H](C(=O)NCCOCCOCCOCCOCCC(N)=O)NC(=O)[C@H](Cc2ccc(C(=O)NCCOCCOCCOCCOCCOCCOCCOCCOC)cc2)N(C)C(=O)[C@H](Cc2cccc(C(=O)NCCOCCOCCOCCOCCOCCOCCOCCOC)c2)NC(=O)[C@H](CCC(N)=O)NC(=O)[C@H](CCC(N)=O)NC(=O)[C@H]([C@@H](C)CC)NC1=O [compound 228] ({CH2CO}-AV[NMePhe(3-Cl)]V[Trp(7-aza)]NYY(Me)IIQQ[X1](NH(CH2CH2O)8Me)[NMePhe(4-COOH)](NH(CH2CH2O)8Me)C[PEG4]-NH2; thioether N-15)
